Molecular target: T1, FlK (fluoroacetyl-CoA thioesterase) (Streptantibioticus cattleyicolor, UniProt Q1EMV2)
T1 sequence (Q1EMV2 1-139): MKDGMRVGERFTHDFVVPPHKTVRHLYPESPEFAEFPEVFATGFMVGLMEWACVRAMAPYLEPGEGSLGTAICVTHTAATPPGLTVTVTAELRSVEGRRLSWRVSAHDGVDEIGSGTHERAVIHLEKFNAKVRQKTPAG
Test: pre-steady-state rapid chemical quench, HPLC of CoA release
Format: biochemical
Settings: Bis-Tris 100 mM pH 6.0; covalent acyl-enzyme on Glu 50

CC(C)(COP(=O)(O)OP(=O)(O)OC[C@H]1O[C@@H](n2cnc3c(N)ncnc32)[C@H](O)[C@@H]1OP(=O)(O)O)[C@@H](O)C(=O)NCCC(=O)NCCSC(=O)CF [fluoroacetyl-CoA]
pre-steady-state rapid chemical quench, HPLC of CoA release: we observed a burst phase of product formation consistent with enzyme acylation

— article PMC3985765 (Biochemistry, 2014)
